We go through five compounds from US11395857B2, “Radiolabeled melanocortin 1 receptor-specific alpha-melanocyte-stimulating hormone analogues for imaging or therapy” (PROVINCIAL HEALTH SERVICES AUTHORITY, priority 2018, dated 2022).

The subject of one data set is B16F10 cells. Description: In vitro competition binding assay on B16-F10 cells vs 125I-[Nle4,D-Phe7]-alpha-MSH. Also on record: species or system Mus musculus. The conditions noted are these: natGa-coupled peptides. The method, then:
The B16-F10 melanoma cell line (Mus musculus) used in the tumor model was obtained commercially from ATTC (CRL-6475). Cells were cultured in Dulbecco's Modified Eagle's Medium (DMEM, StemCell Technologies) supplemented by 10% FBS, 100 U/mL penicillin and 100 μg/mL streptomycin at 37° C. in a humidified incubator containing 5% CO2. Cells grown to roughly 90% confluence were washed with sterile phosphate-buffered saline (lx PBS, pH 7.4), followed by trypsinization. For tumour implantation, C57BL/6J mice were anesthetized by inhalation with 2% isoflurane in 2.0 L/min of oxygen, 2×10^6 B16-F10 cells were inoculated subcutaneously on right dorsal flank. Mice were imaged or used in biodistribution studies once the tumour reached 6-8 mm in diameter.
In vitro competitive binding assays were performed using B16-F10 cells and the cell culture method described in Example 1. 500,000 cells/well were seeded onto a 24 well poly-D-lysine coated plate (Corning) overnight. Growth media was removed, and reaction buffer containing 4.8 mg/mL HEPES, […] penicillin/[…] and 2 mg/mL BSA was added, and allowed to incubate with cells at 37° C. for at least an hour. Peptide of interest and ^125I-[Nle^4, D-Phe^7]-alpha-MSH (Perkin Elmer) were added to each well. The binding of ^125I-[Nle^4, D-Phe^7]-alpha-MSH was competed by non-radioactive gallium coupled CCZ01103, CCZ01104, CCZ01105, CCZ01106 or CCZ01114 at increasing concentrations from 0.5 pmol/mL to […]. The reaction mixture was incubated at 25° C. with moderate shaking for 1 h. After the incubation, the reaction mixture was removed, and cells were washed with ice-cold PBS twice. 0.25% Trypsin solution was used to harvest the cells and radioactivity was measured using a Wallac WIZARD2 gamma counter (Perkin Elmer).

Data set [1] is described as follows: In vivo stability in mouse urine at 1 h p.i. (radio-HPLC). The arrangement: species or system C57BL/6J mice. The method, then: All animal experiments were conducted in according to the guidelines established by Canadian Council on Animal Care and approved by Animal Ethics Committee of the University of British Columbia. Mice were housed under pathogen-free conditions and kept on twelve hours light and twelve hours dark cycle in the Animal Research Centre, BC Cancer Research Centre, Vancouver, Canada. C57BL/6J mice were anesthetized by inhalation with 2% isoflurane in 2.0 L/min of oxygen, and approximately 4-6 MBq of [^68Ga]Ga-CCZ01099 or [^68Ga]Ga-CCZ01048 was injected intravenously. The mice were allowed to recover and roam freely in their cages. At 1 h post-injection (p.i.), the mice were euthanized by CO2 inhalation and their urine was collected and analyzed on HPLC for metabolite using the conditions described above. In vivo urine stability of [^68Ga]Ga-CCZ01099 and [^68Ga]Ga-CCZ01048 were 34.0±10.4% and ≥98.0% (n≥3), respectively.
The in vivo stability tests in mouse urine were performed as described in Example 1. […] With systematic reduction in the number of N-methylations for the αMSH analogues, a decrease in in vivo stability was observed.

The subject of a further data set is SK-MEL-1 human melanoma. Description: SPECT/CT imaging of mice bearing SK-MEL-1 human melanoma. It counts as in vivo, NRG mice. The conditions noted are these: 24 h p.i. As to the method:
SPECT/CT imaging experiments were conducted using the same conditions as described in Example 3. […] (FIG. 6).

In another data set the test system is B16-F10 tumours. As to conditions: Zhang et al., 2017 Theranostics; cited from earlier work.

As to `CCCC[C@H](NC(=O)CN1CCC(NC(=O)CN2CCN(CC(=O)O)CCN(CC(=O)O)CCN(CC(=O)O)CC2)CC1)C(=O)N[C@H]1CC(=O)NCCCC[C@@H](C(N)=O)N(C)C(=O)[C@H](Cc2c[nH]c3ccccc23)NC(=O)[C@H](CCCNC(=N)N)N(C)C(=O)[C@@H](Cc2ccccc2)NC(=O)[C@H](Cc2c[nH]cn2)NC1=O` [CCZ01106, DOTA-Pip-Nle-cyclo[Asp-His-D-Phe-(N-Me-Arg)-Trp-(N-Me-Lys)]—NH2], the “Binding affinity (comparison among the five analogues)” value in the data set on B16F10 cells was “highest binding affinity”. Also, the Ki – broadly, the equilibrium dissociation constant of an inhibitor or competing ligand from its target – in the data set on B16F10 cells (n ≥ 3, read-out: Inhibition constants (Ki) on B16F10 cells) stood at 1.5 ± 0.1 nM. Moreover, the “In vivo urine stability, intact tracer” value in data set [1] was 82.5±1.8%.
Take `CCCC[C@H](NC(=O)CN1CCC(NC(=O)CN2CCN(CC(=O)O)CCN(CC(=O)O)CCN(CC(=O)O)CC2)CC1)C(=O)N[C@H]1CC(=O)NCCCC[C@@H](C(N)=O)NC(=O)[C@H](Cc2c[nH]c3ccccc23)NC(=O)[C@H](CCCNC(=N)N)N(C)C(=O)[C@@H](Cc2ccccc2)NC(=O)[C@H](Cc2c[nH]cn2)NC1=O` [CCZ01114, DOTA-Pip-Nle-cyclo[Asp-His-D-Phe-(N-Me-Arg)-Trp-Lys]-NH2]: the “Binding affinity (comparison among the five analogues)” value in the data set on B16F10 cells is listed as “highest binding affinity”.
As to `CCCC[C@H](NC(=O)CN1CCC(NC(=O)[C@H](CCCCNC(=O)CN2CCN(CC(=O)O)CCN(CC(=O)O)CCN(CC(=O)O)CC2)NC(=O)CNC(=O)CCCc2ccc(I)cc2)CC1)C(=O)N[C@H]1CC(=O)NCCCC[C@@H](C(N)=O)N(C)C(=O)[C@H](Cc2c[nH]c3ccccc23)NC(=O)[C@H](CCCNC(=N)N)N(C)C(=O)[C@@H](Cc2ccccc2)NC(=O)[C@H](Cc2c[nH]cn2)NC1=O` [CCZ01148], in the data set on SK-MEL-1 human melanoma, the “Tumour uptake / retention in SPECT images” value is reported as “showed improved the tumour retention”.
For the compound `CCCC[C@H](NC(=O)CN1CCC(NC(=O)[C@H](CCCCNC(=O)CN2CCN(CC(=O)O)CCN(CC(=O)O)CCN(CC(=O)O)CC2)NC(=O)CNC(=O)CCCc2ccc(C)cc2)CC1)C(=O)N[C@H]1CC(=O)NCCCC[C@@H](C(N)=O)N(C)C(=O)[C@H](Cc2c[nH]c3ccccc23)NC(=O)[C@H](CCCNC(=N)N)N(C)C(=O)[C@@H](Cc2ccccc2)NC(=O)[C@H](Cc2cnc[nH]2)NC1=O` [CCZ01158], in the data set on SK-MEL-1 human melanoma, the “Blood uptake in SPECT images” value is listed as “Lower blood uptake was observed” and the “Tumour uptake / retention in SPECT images” value is given as “showed improved the tumour retention”.
As to `CCCC[C@H](NC(=O)CN1CCC(NC(=O)CN2CCN(CC(=O)O)CCN(CC(=O)O)CCN(CC(=O)O)CC2)CC1)C(=O)N[C@H]1CC(=O)NCCCC[C@@H](C(N)=O)NC(=O)[C@H](Cc2c[nH]c3ccccc23)NC(=O)[C@H](CCCNC(=N)N)NC(=O)[C@@H](Cc2ccccc2)NC(=O)[C@H](Cc2c[nH]cn2)NC1=O` [[^68Ga]Ga-CCZ01048, metal not drawn, reference compound], the “Thyroid uptake on PET images” value in the data set on B16-F10 tumours is reported as “thyroid uptake was clearly observed”. In addition, the “In vivo urine stability, intact tracer” value in data set [1] was ≥ 98.0%.
